This experiment relates to CEM cells HIV-1 protection, formazan growth assay. The experiment in a line: NCI AIDS Antiviral Assay. As to conditions: for IC50: measured here: growth of uninfected CEM cells. The method, boiled down:
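Protection of CEM cells against HIV-1 was scored from cell growth (soluble formazan) across five concentrations, with parallel uninfected cells. Lack of protection may reflect toxicity.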

The source made the active and inactive calls.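 The calls were made as follows: active = compounds giving half or more protection of infected cells from virus-caused growth loss, again on retest; inactive = the rest.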 Where a SMILES comes first, the peptide text is derived from it. The star is where a group is joined. Boc = CC(C)(C)OC(=O)*; OBn = c1ccc(CO*)cc1

On to `Cc1cccc(C)c1NC(=O)CCCC(=O)C(C#N)c1ccc(Cl)cc1` (stereo unspecified), for which the EC50 (in general, the midpoint of the concentration-response curve) was > 135 µM and the IC50 – broadly, the point on the concentration scale where inhibition reaches its midpoint – was > 135 µM.

Turning to `CN1c2ccccc2N(C)C2C1N(C)c1ccccc1N2C` (stereo unspecified), the EC50 was > 64.6 µM and the IC50 worked out at 11 µM.

As to `CCOP(=O)(OCC)/C(C#N)=C/c1cccc(Oc2ccccc2)c1`, the EC50 was > 52.5 µM and the IC50 turned out to be 30.2 µM.

On to `Cc1ccc(NC(=O)C(=O)C2C(=O)C3=C(CC2(C)C)NC2C=CC=CC2S3)c(C)c1` (stereo unspecified), for which the EC50 is > 117 µM and the IC50 was > 117 µM.

With `N[C@@H](CSS[C@H](C(=O)O)[C@@H](SSC[C@H](N)C(=O)O)C(=O)O)C(=O)O`, the EC50 was > 200 µM and the IC50 came to 35.5 µM.

In the case of `O=C(CCC(=O)Nc1ccc(Cl)c(Cl)c1)CC(=O)c1ccc(Cl)cc1`, the result was inactive.

As for `O=[N+]([O-])c1ccccc1S(=O)(=O)c1cccc2c1NCCC2`, the EC50 is 3.47 µM and the 50% inhibitory concentration (IC50) is 38 µM.

In the case of `O=C1NCN(c2ccccc2)C12CCN(CCCSc1ccc(F)cc1)CC2`, the EC50 was > 200 µM and the IC50 was determined as 18.2 µM.

On to `CN(C)c1nc2oc(-c3ccccc3)c(-c3ccccc3)c2c2nncn12`, for which the EC50 is > 151 µM and the 50% inhibitory concentration (IC50) was > 151 µM.

With `COc1ccc(CCC2NCCc3cc(OC)c(OC)cc32)cc1` (stereo unspecified), the EC50 is > 692 µM and the IC50 was 102 µM.

Take `O=C1NC23CC=CCC12CCCCCC3` (stereo unspecified): the EC50 is > 389 µM.

As for `CCOC(=O)/C(=C\c1cccc(OC)c1)C(C)=O`, the EC50 was > 525 µM and the IC50 was found to be 95.5 µM.

For `COc1ccc(C2=NC(CO)[C@H](c3ccccc3)O2)cc1OC` (stereo partly specified), the EC50 was > 219 µM and the concentration for half-maximal inhibition (IC50) was > 219 µM.

Take `Cc1cn(C2CC(NC(=O)NO[Si](C)(C)C(C)(C)C)C(CO[Si](C)(C)C(C)(C)C)O2)c(=O)[nH]c1=O` (stereo unspecified): the EC50 is > 200 µM and the IC50 turned out to be 95.5 µM.

Regarding `NC(=O)c1ccc(N=Nc2c(O)c3ccccc3[nH]c2=O)cc1`, the EC50 is > 200 µM and the half-inhibitory concentration (IC50) was > 200 µM.

For the compound `COC(=O)c1cc(C(CCl)c2cc(C(=O)OC)c(O)cc2C)c(C)cc1O`, the EC50 was > 200 µM and the IC50 was found to be 112 µM.

Consider `NS(=O)(=O)c1ccc(NC(=O)c2cccc3c(=O)c4ccccc4[nH]c23)cc1`, for which the outcome was inactive.

Regarding `CC(C)C(NC(=O)C(Cc1ccccc1)NC(=O)OC(C)(C)C)C(=O)NCC(=O)OCc1ccccc1` (stereo not drawn) (Boc-Phe-Val-Gly-OBn; configuration not given here), the EC50 was > 200 µM and the half-inhibitory concentration (IC50) was determined as 10.7 µM.

`OC(C#CCN1CCCC1)(c1ccccc1)c1ccccc1Cl.[C-]#[O+].[C-]#[O+].[C-]#[O+].[C-]#[O+].[C-]#[O+].[C-]#[O+].[Co].[Co]` (stereo unspecified): the EC50 was > 200 µM and the concentration for half-maximal inhibition (IC50) came out at 5.25 µM.

With `COC(=O)c1c(C)cccc1/C=C1/Cc2c(C)cccc2C1=O`, the EC50 was > 200 µM and the half-inhibitory concentration (IC50) is > 200 µM.

`O=C1Nc2ccccc2C1S(=O)(=O)c1ccccc1` (stereo unspecified): the EC50 was > 138 µM and the IC50 was found to be 110 µM.

With `Cn1c(=O)n2n(c1=O)Cc1cccc3cccc(c13)C2`, the EC50 was > 200 µM and the IC50 is > 200 µM.

For `c1c2c(cc3c1OCN(C1CC1)C3)OCN(C1CC1)C2`, the EC50 is > 51.3 µM and the half-inhibitory concentration (IC50) came out at 4.27 µM.

Turning to `Oc1cc(CN2CCOCCOCCOCCOCC2)c(O)cc1CN1CCOCCOCCOCCOCC1`, the EC50 is > 437 µM and the IC50 was 13.2 µM.

Consider `Cn1cc(N)cc1C(=O)Nc1cc(C(=O)Nc2cc(S(=O)(=O)O)c3cc(S(=O)(=O)O)cc(S(=O)(=O)O)c3c2)n(C)c1`, for which the 50% effective concentration (EC50) was 53.7 µM and the concentration for half-maximal inhibition (IC50) worked out at 339 µM.

Consider `CCC(C)C(=O)O[C@H]1C(=O)O[C@@H]2C[C@H]3C(C)=CC(=O)[C@@H](O)[C@]3(C)[C@H]3[C@@H](O)[C@H](O)[C@@]4(C)OC[C@]32[C@@H]14` (stereo partly specified), for which the EC50 is > 5.25 µM and the IC50 amounted to 0.00891 µM.

Take `COC(=O)c1cc(C)ccc1CC(Cc1cccc(C)c1)C(=O)OC` (stereo unspecified): the EC50 was > 200 µM and the concentration for half-maximal inhibition (IC50) was > 200 µM.

In the case of `COC(=O)/C=C1/C(COC(c2ccccc2)(c2ccccc2)c2ccccc2)OC(n2ccc(=O)[nH]c2=O)C1O[Si](C)(C)C(C)(C)C` (stereo unspecified), the EC50 was > 200 µM and the concentration for half-maximal inhibition (IC50) was determined as 10.7 µM.

On to `CCOP(=O)(OCC)/C(C#N)=C/c1cnc[nH]1`, for which the EC50 is > 200 µM and the IC50 was > 200 µM.

As for `N/N=C(\C(=O)Nc1c(Cl)cc([N+](=O)[O-])cc1Cl)C(c1cnc2ccc([N+](=O)[O-])cc2n1)[N+](=O)[O-]` (stereo unspecified), the EC50 is > 70.8 µM and the IC50 was > 70.8 µM.

Consider `O=[N+]([O-])c1ccc2oc(=Nc3ccccc3)c(Nc3ccccc3)nc2c1`, for which the EC50 was > 200 µM and the IC50 stood at 166 µM.

With `COc1ccc(/C=C/C(=O)c2cc(CN(C)C)c(O)c(CN(C)C)c2)cc1`, the EC50 was > 200 µM and the IC50 was found to be 40.7 µM.

For the compound `CCOC(=O)C(=C=C=C(c1ccccc1)c1ccccc1)C(=O)OCC`, the result was inactive.

In the case of `C[N+]1([O-])C2CCC1CC(OC(=O)C(CO)c1ccccc1)C2` (stereo unspecified), the EC50 was > 200 µM and the half-maximal inhibitory concentration (IC50) was > 200 µM.

Take `Cc1cc2nc3c4ccccc4n(C)c3nc2cc1C`: the EC50 is > 7.59 µM and the IC50 came out at 5.25 µM.

For the compound `CCCC(C)(O)CN` (stereo unspecified), the outcome was inactive.

Take `COc1ccc(/C=C2\CN(C)CC3C2=NC(=S)NC3c2ccc(OC)cc2)cc1` (stereo unspecified): the EC50 is > 200 µM and the IC50 came out at 6.61 µM.

For `NC(=Nc1ccc(Br)cc1)/N=C(/N)Nc1cccc(S(=O)(=O)Nc2ncc(Cl)cn2)c1`, the EC50 is > 200 µM and the IC50 is > 200 µM.

Turning to `CC(C)CC(NC(=O)CNC(=O)C(CC(C)C)NC(=O)C(Cc1c[nH]cn1)NC(=O)C(CC(N)=O)NC(=O)C(C)NC(=O)C1CCCN1C(=O)C(Cc1ccc(O)cc1)NC(=O)C1CCCN1C(=O)C(C)NC(=O)C(CCC(=O)O)NC(=O)C(CC(=O)O)NC(=O)C(Cc1ccccc1)NC(=O)C(CC(N)=O)NC(=O)C(C)N)C(=O)O` (stereo unspecified) (H-ANFDEAPYPANHLGL-OH; configuration not given here), the EC50 is > 38 µM and the IC50 was > 38 µM.

For the compound `CC(=O)Nc1ccc(Nc2cc(=O)[nH]c(=O)[nH]2)cc1`, the EC50 was > 200 µM and the IC50 was > 200 µM.

As for `CCOC(=O)c1cn(C)c(=S)n2c1nc1ccccc12`, the EC50 was > 200 µM and the half-maximal inhibitory concentration (IC50) was > 200 µM.

In the case of `O=C(CC(=O)n1nc(-c2ccccc2)c(N=Nc2ccccc2C(=O)O)c1-c1ccccc1)Nc1ccc(Cl)cc1`, the EC50 was > 200 µM and the IC50 stood at 77.6 µM.

Turning to `COc1ccc(OC)c2c(OC)cc(C)cc12`, the EC50 was > 200 µM and the half-maximal inhibitory concentration (IC50) was 89.1 µM.

The values above are taken from PubChem BioAssay AID179 (DTP/NCI, 2004).
